Results on 24 compounds are retold here after patent US20230022724A1, “NOVEL IMIDAZOPYRAZINE DERIVATIVES” (Hoffmann-La Roche Inc., priority 2018, published 2023).

Structures are written as SMILES. Where a name gives a salt, the structure may show the parent alone.

The test system of the first test is Acinetobacter baumannii ATCC17961. Nature of the test: Antimicrobial susceptibility testing: 90% growth inhibitory concentration (IC90) determination. It counts as cell-based. The note with it: Acinetobacter baumannii ATCC17961, Iso-Sensitest broth, OD 600 nm over 16 h. Put shortly: (§1)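 Compounds in twofold series (e.g. 50 to 0.097 μM final) in Iso-Sensitest broth, inoculated at ~5×10^5 CFU/ml, incubated at 35±2° C. OD600 was read every 20 minutes for 16 h. IC90 was derived from growth inhibition during logarithmic phase.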
On to `CNCC1(O)CCN(C(=O)c2ccc(Nc3nccn4c(-c5ccc(OC)c(F)c5)cnc34)cc2Cl)CC1` [Example 110, (2-chloro-4-((3-(3-fluoro-4-methoxyphenyl)imidazo[1,2-a]pyrazin-8-yl)amino)phenyl)(4-hydroxy-4-((methylamino)methyl)piperidin-1-yl)methanone], for which the 90% effect level (IC90) was put at 80 nM. As to `COc1ccc(-c2cnc3c(Nc4cc(F)c(C(=O)N5CCN(C(=O)[C@@H]6C[C@@H](O)CN6)CC5)c(Br)c4)nccn23)c(F)c1F` [Example 109, (4-(2-bromo-4-((3-(2,3-difluoro-4-methoxyphenyl)imidazo[1,2-a]pyrazin-8-yl)amino)-6-fluorobenzoyl)piperazin-1-yl)((2S,4R)-4-hydroxypyrrolidin-2-yl)methanone dihydrochloride], the 90% effect level (IC90) was put at 69 nM. In the case of `O=C(c1ccc(Nc2nccn3c(-c4ccc(OCF)c(F)c4F)cnc23)cc1Cl)N1CCN(C(=O)[C@@H]2C[C@@H](O)CN2)CC1` [Example 112, [2-chloro-4-[[3-[2,3-difluoro-4-(fluoromethoxy)phenyl]imidazo [1,2-a]pyrazin-8-yl]amino]phenyl]-[4-[(2S,4R)-4-hydroxypyrrolidine-2-carbonyl]piperazin-1-yl]methanone trifluoroacetate], the IC90 (in general, the point of the concentration-response curve where the effect stands at 90%) worked out at 22 nM.

For the compound `O=C(c1ccc(Nc2nccn3c(-c4ccc(OC(F)F)c(F)c4F)cnc23)cc1Cl)N1CCN(C(=O)[C@@H]2C[C@@H](O)CN2)CC1` [Example 113, [2-chloro-4-[[3-[4-(difluoromethoxy)-2,3-difluoro-phenyl]imidazo[1,2-a]pyrazin-8-yl]amino]phenyl]-[4-[(2S,4R)-4-hydroxypyrrolidine-2-carbonyl]piperazin-1-yl]methanone formate], the IC90 was 22 nM.

In the case of `CNCC1(O)CCN(C(=O)c2ccc(Nc3nccn4c(-c5ccc(OC)c(F)c5F)cnc34)cc2Cl)CC1` [Example 111, (2-chloro-4-((3-(2,3-difluoro-4-methoxyphenyl)imidazo[1,2-a]pyrazin-8-yl)amino)phenyl)(4-hydroxy-4-((methylamino)methyl)piperidin-1-yl)methanone], it took 68 nM to reach the 90% level (IC90).

The test system of a further test is Acinetobacter baumannii ATCC17978. The test is described as above. It counts as cell-based. The note with it: 90% growth inhibitory concentration, Acinetobacter baumannii ATCC17978, Iso-Sensitest broth, OD 600 nm over 16 h; read-out: ATCC17978 IC90. The essentials:
as §1
For the compound `CN(C)CCN1CCN(C(=O)c2ccc(Nc3nccn4c(-c5ccc(OCC#N)c(F)c5F)cnc34)cc2Cl)CC1` [Example 84, 2-[4-[8-[3-chloro-4-[4-[2-(dimethylamino)ethyl]piperazine-1-carbonyl]anilino]imidazo[1,2-a]pyrazin-3-yl]-2,3-difluorophenoxy]acetonitrile; 2,2,2-trifluoroacetic acid], the IC90 came out at 110 nM.

For the compound `COc1ccc(-c2cnc3c(Nc4ccc(C(=O)N5CCC(C(=O)N6CCNC(C(=O)O)C6)CC5)c(Cl)c4)nccn23)cc1F` (stereo not drawn) [Example 59, 4-[1-[2-chloro-4-[[3-(3-fluoro-4-methoxyphenyl)imidazo[1,2-a]pyrazin-8-yl]amino]benzoyl]piperidine-4-carbonyl]piperazine-2-carboxylic acid], the IC90 came to 1200 nM.

The test is the same for the next values; noted with them: Acinetobacter baumannii, ATCC17978, 16 h, 90% growth inhibitory concentration, Acinetobacter baumannii ATCC17978, Iso-Sensitest broth, OD 600 nm over 16 h; read-out: ATCC17978 IC90.
`COc1ccc(-c2cnc3c(Nc4ccc(C(=O)N5CCN(Cc6cnc[nH]6)CC5)c(Cl)c4)nccn23)cc1F` [Example 72, [2-chloro-4-[[3-(3-fluoro-4-methoxyphenyl)imidazo[1,2-a]pyrazin-8-yl]amino]phenyl]-[4-(1H-imidazol-5-ylmethyl)piperazin-1-yl]methanone]: the concentration for an effect of 90% (IC90) came out at 510 nM. For `N#CCOc1ccc(-c2cnc3c(Nc4ccc(C(=O)N5CCC(c6nnn[nH]6)CC5)c(Cl)c4)nccn23)c(F)c1F` [Example 13, 2-[4-[8-[3-chloro-4-[4-(1H-tetrazol-5-yl)piperidine-1-carbonyl]anilino]imidazo[1,2-a]pyrazin-3-yl]-2,3-difluoro-phenoxy]acetonitrile;2,2,2-trifluoroacetic acid], the concentration for an effect of 90% (IC90) is 280 nM. For the compound `N#CCOc1cc(Cl)c(-c2cnc3c(Nc4ccc(C(=O)N5CCC(C(=O)N6CCNC(CO)C6)CC5)c(Cl)c4)nccn23)cc1F` (stereo not drawn) [Example 15, 2-[5-chloro-4-[8-[3-chloro-4-[4-[3-(hydroxymethyl)piperazine-1-carbonyl]piperidine-1-carbonyl]anilino]imidazo[1,2-a]pyrazin-3-yl]-2-fluoro-phenoxy]acetonitrile; 2,2,2-trifluoroacetic], the 90% effect concentration (IC90) worked out at 110 nM. Turning to `COc1ccc(-c2cnc3c(Nc4ccc(C(=O)N5CCN(CCN(C)C)CC5)c(Br)c4)nccn23)cc1F` [Example 81, [2-bromo-4-[[3-(3-fluoro-4-methoxyphenyl)imidazo[1,2-a]pyrazin-8-yl]amino]phenyl]-[4-[2-(dimethylamino)ethyl]piperazin-1-yl]methanone;formic acid], the IC90 worked out at 290 nM. On to `O=C(c1ccc(Nc2nccn3c(-c4ccc(OC(F)F)cc4)cnc23)cc1Cl)N1CCC(N2CCNCC2)CC1` [Example 67, [2-chloro-4-[[3-[4-(difluoromethoxy)phenyl]imidazo [1,2-a]pyrazin-8-yl]amino]phenyl]-(4-piperazin-1-ylpiperidin-1-yl)methanone;hydrochloride], for which the IC90 came out at 170 nM. In the case of `COc1ccc(-c2cnc3c(Nc4ccc(C(=O)N5CCN(CCO)CC5)cc4)nccn23)cc1` [Example 63, [4-(2-hydroxyethyl)piperazin-1-yl]-[4-[[3-(4-methoxyphenyl)imidazo[1,2-a]pyrazin-8-yl]amino]phenyl]methanone], the IC90 stood at 1100 nM. For `COc1ccc(-c2cnc3c(Nc4ccc(C(=O)N5CCN(CCN(C)C)CC5)c(Cl)c4)nccn23)c(Cl)c1F` [Example 68, [2-chloro-4-[[3-(2-chloro-3-fluoro-4-methoxyphenyl)imidazo[1,2-a]pyrazin-8-yl]amino]phenyl]-[4-[2-(dimethylamino)ethyl]piperazin-1-yl]methanone], the IC90 was 110 nM. Turning to `COc1ccc(-c2cnc3c(Nc4ccc(C(=O)N5CCC(N(C)C)C5)cc4)nccn23)cc1` (stereo not drawn) [Example 66, [3-(dimethylamino)pyrrolidin-1-yl]-[4-[[3-(4-methoxyphenyl)imidazo[1,2-a]pyrazin-8-yl]amino]phenyl]methanone], the IC90 was determined as 5900 nM. Same read-out and setting: to `NCC1CCN(C(=O)c2ccc(Nc3nccn4c(-c5ccc(OC(F)F)cc5)cnc34)cc2I)CC1` [Example 51, [4-(aminomethyl)piperidin-1-yl]-[4-[[3-[4-(difluoromethoxy)phenyl]imidazo[1,2-a]pyrazin-8-yl]amino]-2-iodophenyl]methanone; hydrochloride] belongs 230 nM. Same read-out and setting: to `N#CCOc1ccc(-c2cnc3c(Nc4ccc(C(=O)N5CCN(CCN6CCCC6)CC5)c(Cl)c4)nccn23)c(Cl)c1F` [Example 26] belongs 86 nM.

The test is the same for the next values; noted with them: Acinetobacter baumannii, ATCC17978, 16 h, read-out: ATCC17978 IC90.
For the compound `CN(C)C1CCN(CCN2CCN(C(=O)c3ccc(Nc4nccn5c(-c6ccc(OCC#N)c(F)c6F)cnc45)cc3Cl)CC2)C1` (stereo not drawn) [Example 100, 2-[4-[8-[3-chloro-4-[4-[2-[3-(dimethylamino)pyrrolidin-1-yl]ethyl]piperazine-1-carbonyl]anilino]imidazo[1,2-a]pyrazin-3-yl]-2,3-difluorophenoxy]acetonitrile; 2,2,2-trifluoroacetic acid], the IC90 came to 170 nM. `CC(C#N)Oc1ccc(-c2cnc3c(Nc4ccc(C(=O)N5CCN(CCN(C)C)CC5)c(Cl)c4)nccn23)c(F)c1F` (stereo not drawn) [Example 41, 2-[4-[8-[3-chloro-4-[4-[2-(dimethylamino)ethyl]piperazine-1-carbonyl]anilino]imi-dazo[1,2-a]pyrazin-3-yl]-2,3-difluoro-phenoxy]propanenitrile formate]: the IC90 is 130 nM. On to `CN(C)C1CN(CCN2CCN(C(=O)c3ccc(Nc4nccn5c(-c6ccc(OCC#N)c(F)c6F)cnc45)cc3Cl)CC2)C1` [Example 102, 2-[4-[8-[3-chloro-4-[4-[2-[3-(dimethylamino)azetidin-1-yl]ethyl]piperazine-1-carbonyl]anilino]imidazo[1,2-a]pyrazin-3-yl]-2,3-difluorophenoxy]acetonitrile; 2,2,2-trifluoroacetic acid], for which the IC90 was found to be 170 nM. As for `CS(=O)(=O)C1CCN(CCN2CCN(C(=O)c3ccc(Nc4nccn5c(-c6ccc(OCC#N)c(F)c6F)cnc45)cc3Cl)CC2)C1` (stereo not drawn) [Example 103, 2-[4-[8-[3-chloro-4-[4-[2-(3-methylsulfonylpyrrolidin-1-yl)ethyl]piperazine-1-carbonyl]anilino]imidazo[1,2-a]pyrazin-3-yl]-2,3-difluorophenoxy]acetonitrile; 2,2,2-trifluoroacetic acid], the IC90 worked out at 180 nM. In the case of `CNCCNC(=O)C1CCN(C(=O)c2ccc(Nc3nccn4c(-c5ccc(OC)c(F)c5)cnc34)cc2Cl)CC1` [Example 16, 1-(2-chloro-4-((3-(3-fluoro-4-methoxyphenyl)imidazo[1,2-a]pyrazin-8-yl)amino)benzoyl)-N-(2-(methylamino)ethyl)piperidine-4-carboxamide hydrochloride], the IC90 came to 100 nM. As for `N#CCOc1ccc(-c2cnc3c(Nc4ccc(C(=O)N5CCC(C(=O)N6CCN[C@H](CO)C6)CC5)c(Cl)c4)nccn23)c(Cl)c1F` [Example 88, 2-[3-chloro-4-[8-[3-chloro-4-[4-[(3S)-3-(hydroxymethyl)piperazine-1-carbonyl]piperidine-1-carbonyl]anilino]imidazo[1,2-a]pyrazin-3-yl]-2-fluorophenoxy]acetonitrile; formic acid], the IC90 was determined as 90 nM. For `COc1ccc(-c2cnc3c(Nc4ccc(C(=O)N5CCN(C6CNC6)CC5)c(Cl)c4)nccn23)cc1F` [Example 73, [4-(azetidin-3-yl)piperazin-1-yl]-[2-chloro-4-[[3-(3-fluoro-4-methoxyphenyl)imidazo[1,2-a]pyrazin-8-yl]amino]phenyl]methanone; hydrochloride], the IC90 stood at 530 nM.
